Columns and labels:
[1] = Reaction kinetics of cysteine-reactive compounds with N-acetyl-L-cysteine methyl ester (LC-MS); format: physicochemical
Protocol: Reaction Kinetics of Cysteine-Reactive Compounds with N-Acetyl-L-Cysteine Methyl Ester
Stock solution of cysteine-reactive compound in DMSO was diluted by PBS/MeOH solution mixture (4:1, v/v; 500 μL), reaching final concentration of 10 μM. Stock solution of N-acetyl-L-cysteine methyl ester in DMSO was then freshly prepared, and added to the compound solution at final concentration of 250 μM. The solution mixture was incubated at room temperature, and at predetermined time intervals, an aliquot of the reaction mixture (10 μL) was sent for LC-MS analysis on Waters Autopurification System using a SunFire C18 HPLC column (50×4.6 mm with 5 μm diameter particles, Waters). Separation was achieved by gradient elution from 5% to 100% MeCN in water (constant 0.1 vol % formic acid) over 4 min, isocratic elution with 100% MeCN (with 0.1 vol % formic acid) from 4 to 8 min, and returning to 5% MeCN in water (with 0.1 vol % formic acid) and equilibrated for 2 min. Selected ion chromatograms, with m/z corresponding to the molecular ion of the compound and/or the adduct, were extracted and the data was analyzed using MassLynx™ software by calculating the area under the curve. The peak area was then calibrated to concentration of the compound/adduct by a set of solution mixtures containing known concentrations of the compound/adduct.
The reactivity of NAIA with cysteine in aqueous buffer solution has been investigated by LC-MS experiments (FIGS. 1A-1J). […] Upon addition of N-acetylcysteine methyl ester (250 μM), NAIA-5 reacted quickly and completely with N-acetylcysteine methyl ester within […], as reflected by the diminishment of the peak of NAIA-5 at t=6.20 min with a concomitant growth of a new peak at t=5.60 min in the LC, which is attributable to the cysteine adduct of NAIA-5 based on the MS (FIGS. 1B-1G). […] This highlights the important contribution of aromaticity of indole scaffold to increase electrophilicity of acrylamide warhead for fast and complete cysteine reaction in aqueous buffer solution.
Next, we monitored the reaction between NAIA-amide (10 μM) and N-acetylcysteine methyl ester (250 μM) by LC-MS analysis (FIG. 17A). Complete conversion of NAIA-C5 amide was observed within 40 s as indicated by the disappearance of NAIA-C5 amide peak (t=5.09 min) and emergence of the adduct peat (t=4.80 min) in the LC trace (FIG. 17B). Likewise, the reaction of NAIA-C4 amide proceeded with fast kinetics and was completely consumed in 1 min (FIG. 17C). The calculated rate constant of NAIA-C5 amide and NAIA-C4 amide were 2-fold and 1.2-fold faster than NAIA (FIG. 17D). […] Owning to the excellent reaction rate of NAIA-C5 amide, it was taken forward for further comparative analysis in subsequent experiments.

HepG2 cells [2] = assay: Gel-based ABPP, Cys labeling in live HepG2 cells; format: cell-based; settings: 10 μM, three incubation time intervals
Protocol: In-Gel Fluorescence for Visualizing Cys Labeling by NAIAs and IAA in Live Cells
231MFP or HepG2 cells were grown in 10-cm plates in complete medium. At ca. 80% confluency, the cells were treated with DMSO solvent control, NAIA-4, NAIA-5, or IAA at indicated concentrations in complete medium for indicated time interval. The cells were then washed by DPBS and lysed by probe sonication in DPBS. Cell debris were removed by centrifugation at 1,000 g for 5 min. Protein concentration of the lysates was determined by BCA assay, and the lysates were diluted to 2 mg/mL by DPBS. 50 μL of the lysates were labeled with azide-fluor 545 by CuAAC according to the procedures described above. The samples were then added with 4× reducing Laemmli SDS sample loading buffer, boiled at 90° C. for 5 min, and separated by molecular weight on precast 4-20% TGX gels and scanned by ChemiDoc MP for measuring in-gel fluorescence. After that, the gel was stained with SimplyBlue™ SafeStain as described above, washed and scanned by ChemiDoc MP for imaging the blue staining.
In view of the success in labeling cysteines in cell lysates, we then proceeded to apply NAIA for capturing reactive cysteines in live cells. […] After protein assay and normalization, the protein samples were subjected to click reaction with azide-fluor 545, followed by SDS-PAGE and in-gel fluorescence measurement. […]

HepG2 cells [3] = assay: MTT cell viability assay; format: cell-based
Protocol: MTT Cell Viability Assay of Cells Treated with NAIA-5
HepG2 cells were plated on 96-well plates (Corning, 3904) at 30,000 cells per well in 100 μL of complete medium and allowed to grow overnight. The cells were then incubated with DMSO solvent control or NAIA-5 at indicated concentrations for 1 h. The treated cells were then added with 10 μL of MTT solution in PBS (5 mg/mL) and incubated in dark at 37° C. with 5% CO2 for 4 h. After that, 100 μL of SDS solution in PBS ([…] with 0.01M HCl) was added for cell lysis. The plates were kept in dark overnight and cell viability were assayed by the absorption at 580 nm on Perkin Elmer Victor 3 ([…]).

[4] = compound 10 μM, N-Ac-Cys-OMe 250 μM, PBS/MeOH 4:1

Structure (SMILES) | reaction kinetics with cysteine (k) ([1]; FIG. 7 legend summary) | cysteine reaction rate (in words) ([1]; compound 10 μM, N-Ac-Cys-OMe 250 μM) | compound left unreacted [1, 4] | time to complete reaction with N-acetylcysteine methyl ester [1, 4] [s] | cysteine labeling in live cells (in-gel fluorescence) compared with IAA (HepG2 cells [2]) | cellular toxicity (in words) (HepG2 cells [3]; 10 μM for 1 h) | IC50 (HepG2 cells [3]; MTT, 1 h incubation, read-out: IC50 (cytotoxicity)) [µM] | cell viability (in words) (HepG2 cells [3]; treatment for 1 h)
C#CCCCCNC(=O)CI [IAA, N-Hex-5-ynyl-2-iodoacetamide, reference compound] | ~10^0 M^−1 s^−1 | react much slower with cysteine than our NAIAs | more than 40% |  |  |  |  | 
C#CCCCCNC(=O)COc1ccc2c(ccn2C(=O)C=C)c1 [NAIA-5] |  |  |  | ≤ 300 | better cysteine labeling than IAA at 10 μM for all the three incubation time intervals | no significant cellular toxicity was found | > 40 | no significant changes in viability of HepG2 cells
